Results reported in patent US8669291B2, “Phenyl substituted cycloalkylamines as monoamine reuptake inhibitors” (Sunovion Pharmaceuticals Inc., priority 2007, dated 2014).
Read-outs that look alike come from different tables or passages of the source.

Assays:
[1] = molecular target: HERG current (Homo sapiens, UniProt Q12809); assay: inhibition of HERG current; type: cell-based
From the text: (§1) 4b. In Vitro PK Data (Human Metabolic Stability, Inhibition of CYP450 Enzymes, Inhibition of HERG Current)

[2] = system: CYP2D6, CYP2C9, CYP3A4, CYP2C19, CYP1A (printed 1a); assay: inhibition of CYP450 enzymes; type: in vitro ADME; settings: 5 isoforms; read-out: CYP inhibition IC50 (microM) 5 isoforms (2D6, 2C9, 3A4, 2C19, 1a)
From the text: as §1

[3] = molecular target: T1, human serotonin (5-HT) reuptake transporter (Homo sapiens, UniProt P31645); assay: functional uptake assay, human 5-HT reuptake transporter; type: cell-based
T1 construct: expressed in transfected cells
Description: (§2) Compounds were tested for their inhibition of functional uptake of serotonin (5-HT), norepinephrine (NE), and dopamine (DA), in synaptosomes prepared from rat whole brain, hypothalamus, or corpus striatum, respectively, and/or using recombinant human transporters.

[4] = system: mice; assay: Mouse Tail Suspension Test; type: in vivo; settings: PO
Description: The method, which detects antidepressant activity, follows that described by Stéru et al (Psychopharmacology, 85: 367-370 (1985)). Rodents, suspended by the tail, rapidly become immobile. Antidepressants decrease the duration of immobility.
The behavior of the animal was recorded automatically for 5 minutes using a computerized device (Med-Associates Inc.) similar to that developed by Stéru et al (Prog. Neuropsychopharmacol. Exp. Psychiatry 11: 659-671 (1987)). Ten to twelve mice were tested in each group. Compounds were typically evaluated at 3 doses (1-30 mg/kg), administered orally one time: 30-60 minutes before the test, and compared with a vehicle control group. Desipramine (100 mg/kg), administered under the same experimental conditions, was used as the positive reference substance.
(§3) Data were analyzed by one way analysis of variance (ANOVA) followed by post-hoc comparisons where appropriate. An effect was considered significant if p<0.05. Data are represented as the mean and standard error to the mean (s.e.m).

[5] = molecular target: T2, human norepinephrine (NE) reuptake transporter (Homo sapiens, UniProt P23975); assay: functional uptake assay, human NE reuptake transporter; type: cell-based
T2 construct: expressed in transfected cells
Description: as §2

[6] = molecular target: T3, human dopamine (DA) reuptake transporter (Homo sapiens, UniProt Q01959); assay: functional uptake assay, human DA reuptake transporter; type: cell-based
T3 construct: expressed in transfected cells
Description: as §2

[7] = system: mice; assay: Mouse Locomotor Activity; type: in vivo; settings: PO
Description: In order to ensure effects of the compounds on immobility time were not related to a general stimulant effect on baseline motor activity, locomotor activity was assessed using photocell monitored cages (Med-Associates Inc.). Each test chamber was equipped with infrared photocell beams to measure movement of the animals. Horizontal and vertical activity were measured.
Rats or mice were pretreated with vehicle or test compounds and placed back in home cage, following which they were individually placed in locomotor cages and activity was monitored in 1-5 minute intervals for intervals up to 60 min.
as §3

[8] = human metabolic stability (HLM t1/2); type: in vitro ADME; settings: human liver microsomes
From the text: as §1

[9] = molecular target: T4, DA Transporter (DAT) (Mus musculus, UniProt Q61327); assay: ex vivo [3H] WIN 35428 binding to DAT sites in mouse brain; settings: mice, 60 minutes after treatment
T4 construct: Striatal membranes (200 μL; equivalent to 2 mg wet weight of tissue/tube); from tissue; host or cells: striatum of C57BL/6 mice
Description: (§4) Receptor occupancy of central noradrenaline (NA), 5-HT and dopamine (DA) transporter sites following peripheral administration of compounds was determined using [^3H] nisoxetine, [^3H] citalopram and [^3H] WIN 35428 binding, respectively. Liquid scintillation counting was used to quantify the radioactivity.
(§5) C57BL/6 mice (25-30 g) were dosed orally with either vehicle or compound at 4 dose levels. Mice were sacrificed 60 minutes after treatment. Whole brains were removed and cortex and striata dissected out before being frozen on dry ice. The brain tissue was stored at −20° C. until the day of the assay. The cortex from each hemisphere was frozen separately. One was used to determine occupancy of NA transporter sites and the other occupancy of 5-HT transporter sites. Striatum was used to determine occupancy of DA transporter sites.
(§6) Frontal cortex from each hemisphere or striata was homogenized individually in ice-cold assay buffer using a tight fitting glass/Teflon homogenizer and used immediately in the binding assay.
Striatal membranes (200 μL; equivalent to 2 mg wet weight of tissue/tube) were incubated with 25 μL of [^3H] WIN 35428 at a single concentration of 24 nM and either 25 μL of buffer (total binding) or 25 μL of GBR12935 (1 μM; non-specific binding) for 2 h at 4° C. For each animal, two tubes were used for the determination of total binding and two tubes for the determination of non-specific binding.
(§7) Membrane bound radioactivity was recovered by filtration under vacuum through Skatron 11731 filters, presoaked in 0.5% PEI, using a Skatron cell harvester. Filters were rapidly washed with ice-cold phosphate buffer and radioactivity (dpm) was determined by liquid scintillation counting (1 mL Packard MV Gold scintillator).
(§8) A value for specific binding (dpm) was generated by the subtraction of mean non-specific binding (dpm) from mean total binding (dpm) for each animal. Data are presented as mean specific binding (dpm) and as a percentage of the vehicle-treated control taken as 100%.

[10] = molecular target: T5, 5-HT Transporter (SERT) (Mus musculus, UniProt Q60857); assay: ex vivo [3H] citalopram binding to SERT sites in mouse brain; settings: mice, 60 minutes after treatment
T5 construct: Cortical membranes (400 μL; equivalent to 1.25 mg wet weight of tissue/tube); from tissue; host or cells: frontal cortex of C57BL/6 mice
Description: as §4, §5, §6
Cortical membranes (400 μL; equivalent to 1.25 mg wet weight of tissue/tube) were incubated with 50 μl of [^3H] citalopram at a single concentration of 1.3 nM and either 50 μl of buffer (total binding) or 50 μl of paroxetine (0.5 μM; non-specific binding) for 1 h at 27° C. For each animal, three tubes were used for the determination of total binding and three tubes were used for the determination of non-specific binding.
as §7, §8

[11] = Example 6 summary of selected in vitro data, read-out: 5-HT IC50

T1 sequence (P31645 whole entry): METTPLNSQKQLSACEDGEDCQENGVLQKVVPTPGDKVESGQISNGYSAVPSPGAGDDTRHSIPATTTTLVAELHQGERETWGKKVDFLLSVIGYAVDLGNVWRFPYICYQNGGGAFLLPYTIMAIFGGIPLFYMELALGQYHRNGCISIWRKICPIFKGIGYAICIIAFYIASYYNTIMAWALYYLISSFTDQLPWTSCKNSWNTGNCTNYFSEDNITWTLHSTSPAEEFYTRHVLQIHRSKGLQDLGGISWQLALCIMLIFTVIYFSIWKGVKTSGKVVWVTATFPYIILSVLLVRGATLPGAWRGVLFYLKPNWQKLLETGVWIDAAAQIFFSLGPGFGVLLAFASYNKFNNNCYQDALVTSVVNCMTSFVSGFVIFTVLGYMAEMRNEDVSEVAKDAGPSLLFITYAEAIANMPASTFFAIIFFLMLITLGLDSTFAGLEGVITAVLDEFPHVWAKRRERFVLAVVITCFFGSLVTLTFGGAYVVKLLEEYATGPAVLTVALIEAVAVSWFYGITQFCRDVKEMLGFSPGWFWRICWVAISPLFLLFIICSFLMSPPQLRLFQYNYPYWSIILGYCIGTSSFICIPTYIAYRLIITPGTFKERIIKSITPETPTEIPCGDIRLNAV
T4 sequence (Q61327 whole entry): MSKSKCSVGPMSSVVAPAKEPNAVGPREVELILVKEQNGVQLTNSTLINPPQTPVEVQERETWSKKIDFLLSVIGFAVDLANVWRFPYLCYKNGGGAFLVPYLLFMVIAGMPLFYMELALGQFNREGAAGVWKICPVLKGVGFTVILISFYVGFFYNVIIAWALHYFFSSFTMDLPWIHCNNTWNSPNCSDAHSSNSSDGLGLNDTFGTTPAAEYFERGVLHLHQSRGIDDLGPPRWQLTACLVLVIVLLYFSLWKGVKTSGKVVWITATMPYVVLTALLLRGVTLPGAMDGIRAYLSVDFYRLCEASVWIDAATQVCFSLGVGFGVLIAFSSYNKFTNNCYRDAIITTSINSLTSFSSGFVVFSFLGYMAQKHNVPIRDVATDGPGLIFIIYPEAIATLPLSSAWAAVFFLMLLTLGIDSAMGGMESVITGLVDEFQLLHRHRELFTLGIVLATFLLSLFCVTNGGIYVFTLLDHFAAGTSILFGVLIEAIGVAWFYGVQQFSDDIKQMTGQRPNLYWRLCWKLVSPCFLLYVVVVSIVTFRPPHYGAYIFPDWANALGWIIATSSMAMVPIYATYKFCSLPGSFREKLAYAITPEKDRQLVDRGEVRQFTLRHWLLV
T5 sequence (Q60857 whole entry): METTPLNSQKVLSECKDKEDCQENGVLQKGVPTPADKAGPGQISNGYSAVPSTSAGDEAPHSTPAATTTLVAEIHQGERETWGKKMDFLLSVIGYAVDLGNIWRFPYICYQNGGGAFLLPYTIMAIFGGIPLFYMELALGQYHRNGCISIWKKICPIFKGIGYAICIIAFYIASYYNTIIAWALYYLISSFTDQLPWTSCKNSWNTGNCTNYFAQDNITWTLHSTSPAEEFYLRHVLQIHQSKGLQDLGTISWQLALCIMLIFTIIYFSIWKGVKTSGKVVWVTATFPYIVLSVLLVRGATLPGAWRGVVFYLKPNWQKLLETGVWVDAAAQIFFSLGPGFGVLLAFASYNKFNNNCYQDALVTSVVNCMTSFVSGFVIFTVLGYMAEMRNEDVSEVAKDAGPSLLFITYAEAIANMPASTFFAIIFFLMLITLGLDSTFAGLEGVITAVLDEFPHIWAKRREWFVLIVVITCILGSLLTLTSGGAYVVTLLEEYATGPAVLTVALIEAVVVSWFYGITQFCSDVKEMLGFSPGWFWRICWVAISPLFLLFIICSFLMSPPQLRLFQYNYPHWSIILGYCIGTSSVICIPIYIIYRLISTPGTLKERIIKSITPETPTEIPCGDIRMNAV
T2 sequence (P23975 whole entry): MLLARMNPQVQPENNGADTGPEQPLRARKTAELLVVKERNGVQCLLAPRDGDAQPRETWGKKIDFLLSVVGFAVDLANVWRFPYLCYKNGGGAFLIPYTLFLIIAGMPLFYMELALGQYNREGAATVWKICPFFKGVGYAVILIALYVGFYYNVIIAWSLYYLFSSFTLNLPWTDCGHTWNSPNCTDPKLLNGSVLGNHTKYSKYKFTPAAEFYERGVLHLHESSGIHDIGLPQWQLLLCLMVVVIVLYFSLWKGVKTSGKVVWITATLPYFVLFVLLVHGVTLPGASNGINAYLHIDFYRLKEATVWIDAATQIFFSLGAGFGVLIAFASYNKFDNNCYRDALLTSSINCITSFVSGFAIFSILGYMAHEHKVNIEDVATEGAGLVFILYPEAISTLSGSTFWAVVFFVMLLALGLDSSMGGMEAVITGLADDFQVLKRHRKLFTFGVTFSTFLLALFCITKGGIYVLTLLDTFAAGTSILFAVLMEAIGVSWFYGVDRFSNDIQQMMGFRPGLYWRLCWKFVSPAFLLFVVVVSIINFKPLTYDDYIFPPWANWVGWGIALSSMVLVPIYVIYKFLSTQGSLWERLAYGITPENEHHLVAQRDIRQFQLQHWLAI
T3 sequence (Q01959 whole entry): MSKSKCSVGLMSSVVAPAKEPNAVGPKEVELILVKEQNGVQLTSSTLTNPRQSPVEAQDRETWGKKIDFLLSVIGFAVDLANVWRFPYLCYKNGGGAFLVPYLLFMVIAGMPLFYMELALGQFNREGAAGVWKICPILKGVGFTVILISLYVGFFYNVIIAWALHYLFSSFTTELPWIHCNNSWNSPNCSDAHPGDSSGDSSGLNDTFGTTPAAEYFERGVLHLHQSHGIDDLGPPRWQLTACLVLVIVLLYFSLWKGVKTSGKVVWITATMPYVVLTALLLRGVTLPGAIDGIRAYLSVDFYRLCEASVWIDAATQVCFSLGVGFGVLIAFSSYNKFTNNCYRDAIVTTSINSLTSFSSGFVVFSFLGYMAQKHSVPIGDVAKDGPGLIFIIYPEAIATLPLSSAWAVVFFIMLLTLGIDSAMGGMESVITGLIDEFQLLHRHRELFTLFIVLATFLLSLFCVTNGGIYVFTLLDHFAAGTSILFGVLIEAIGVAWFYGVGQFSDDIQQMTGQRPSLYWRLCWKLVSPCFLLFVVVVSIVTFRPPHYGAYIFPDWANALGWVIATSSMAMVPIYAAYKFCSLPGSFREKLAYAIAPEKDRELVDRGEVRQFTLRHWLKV
HERG current, sequence (Q12809 whole entry): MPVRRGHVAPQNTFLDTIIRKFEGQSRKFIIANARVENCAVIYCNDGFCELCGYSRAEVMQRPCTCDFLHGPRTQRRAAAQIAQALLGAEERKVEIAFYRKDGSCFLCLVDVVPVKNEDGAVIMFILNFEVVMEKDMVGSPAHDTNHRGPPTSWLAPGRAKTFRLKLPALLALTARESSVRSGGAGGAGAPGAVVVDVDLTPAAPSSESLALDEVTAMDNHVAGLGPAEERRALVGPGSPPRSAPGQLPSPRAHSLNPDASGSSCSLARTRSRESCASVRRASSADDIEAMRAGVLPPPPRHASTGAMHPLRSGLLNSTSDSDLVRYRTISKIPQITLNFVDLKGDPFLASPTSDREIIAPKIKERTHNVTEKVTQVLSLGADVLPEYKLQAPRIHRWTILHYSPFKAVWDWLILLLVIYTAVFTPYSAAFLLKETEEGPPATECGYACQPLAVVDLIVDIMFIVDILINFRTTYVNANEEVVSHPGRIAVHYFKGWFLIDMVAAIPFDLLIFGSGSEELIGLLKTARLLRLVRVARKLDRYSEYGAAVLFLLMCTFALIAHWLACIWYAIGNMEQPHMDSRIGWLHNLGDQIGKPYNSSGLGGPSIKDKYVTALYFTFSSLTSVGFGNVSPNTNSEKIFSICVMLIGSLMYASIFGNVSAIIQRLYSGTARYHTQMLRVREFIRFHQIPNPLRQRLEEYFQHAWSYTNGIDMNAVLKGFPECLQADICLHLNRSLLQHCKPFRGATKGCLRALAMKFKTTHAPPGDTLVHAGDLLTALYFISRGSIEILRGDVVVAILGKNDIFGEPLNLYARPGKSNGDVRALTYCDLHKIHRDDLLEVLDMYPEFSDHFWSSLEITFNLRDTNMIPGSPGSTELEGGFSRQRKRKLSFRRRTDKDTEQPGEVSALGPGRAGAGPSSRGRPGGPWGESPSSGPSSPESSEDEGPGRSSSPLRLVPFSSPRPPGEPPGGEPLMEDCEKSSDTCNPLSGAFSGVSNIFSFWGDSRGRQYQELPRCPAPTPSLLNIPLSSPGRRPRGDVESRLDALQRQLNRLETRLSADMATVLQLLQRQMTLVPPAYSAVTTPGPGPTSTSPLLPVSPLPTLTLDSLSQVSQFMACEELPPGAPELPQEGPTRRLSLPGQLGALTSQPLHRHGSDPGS

SMILES: CNC[C@@H]1CCCC[C@@]1(O)c1ccc(Cl)c(Cl)c1 [Compound 4]
- IC50 [1]: 1000 to 15000 nM
- IC50 [2]: > 10 µM
- IC50 ([3]; Example 4a, human reuptake transporter, read-out: 5-HT IC50): > 10000 nM
- IC50 [3, 11]: > 10000 nM
- Mouse Tail Suspension Mean Immobility Time ± S.E.M. ([4]; 1 mg/kg): ++++ (>191 (++++))
- Mouse Tail Suspension Mean Immobility Time ± S.E.M. ([4]; 3 mg/kg): ++++ (>191 (++++))
- Mouse Tail Suspension Mean Immobility Time ± S.E.M. ([4]; 10 mg/kg): +++ (171-190 (+++))
- Mouse Tail Suspension Mean Immobility Time ± S.E.M. ([4]; 30 mg/kg): + (100-160 (+))
- IC50 [5]: 10 to 200 nM
- IC50 ([5]; read-out: NE IC50 nM, Example 6 summary of selected in vitro data): 10 to 200 nM
- IC50 [6]: 10 to 200 nM
- IC50 ([6]; read-out: DA IC50 nM, Example 6 summary of selected in vitro data): 10 to 200 nM
- Mouse Locomotor Activity Total Distance Traveled ± S.E.M. ([7]; 1 mg/kg): ** (501-700 (**))
- Mouse Locomotor Activity Total Distance Traveled ± S.E.M. ([7]; 3 mg/kg): ** (501-700 (**))
- Mouse Locomotor Activity Total Distance Traveled ± S.E.M. ([7]; 10 mg/kg): *** (701-900 (***))
- Mouse Locomotor Activity Total Distance Traveled ± S.E.M. ([7]; 30 mg/kg): * (100-500 (*))
- half-life [8]: 2.93 to 5.42 h

SMILES: CN(C)C[C@@H]1CCCC[C@@]1(O)c1ccc(Cl)c(Cl)c1 (single isomer, unassigned) [Compound 2, cis-1-(3,4-dichlorophenyl)-2-((dimethylamino)methyl)cyclohexanol]
- % Transporter Occupancy, DAT ([9]; 1 mg/kg PO): 15%
- % Transporter Occupancy, DAT ([9]; 3 mg/kg PO): 50%
- % Transporter Occupancy, DAT ([9]; 10 mg/kg PO): 79%
- % Transporter Occupancy, DAT ([9]; 30 mg/kg PO): 90%
- IC50 ([1]; read-out: HERG IC50): 16000 to 30000 nM
- IC50 [2]: > 20 µM
- IC50 ([3]; 5-HT IC50 (nM), Example 4a, human reuptake transporter): 7000 to 10000 nM
- IC50 [3, 11]: 1 to 2000 nM
- Mouse Tail Suspension Mean Immobility Time ± S.E.M. ([4]; 0.3 mg/kg): +++ (171-190 (+++))
- Mouse Tail Suspension Mean Immobility Time ± S.E.M. ([4]; 1 mg/kg): +++ (171-190 (+++))
- Mouse Tail Suspension Mean Immobility Time ± S.E.M. ([4]; 10 mg/kg): + (100-160 (+))
- Mouse Tail Suspension Mean Immobility Time ± S.E.M. ([4]; 30 mg/kg): + (100-160 (+))
- IC50 [5]: 10 to 200 nM
- IC50 ([5]; Example 6 summary of selected in vitro data, read-out: NE IC50): 10 to 200 nM
- IC50 [6]: 10 to 200 nM
- IC50 ([6]; Example 6 summary of selected in vitro data, read-out: DA IC50): 10 to 200 nM
- Mouse Locomotor Activity Total Distance Traveled ± S.E.M. ([7]; 0.3 mg/kg): ** (501-700 (**))
- Mouse Locomotor Activity Total Distance Traveled ± S.E.M. ([7]; 1 mg/kg): ** (501-700 (**))
- Mouse Locomotor Activity Total Distance Traveled ± S.E.M. ([7]; 10 mg/kg): **** (>901 (****))
- Mouse Locomotor Activity Total Distance Traveled ± S.E.M. ([7]; 30 mg/kg): * (100-500 (*))
- half-life [8]: 0.417 to 2.92 h
- % Transporter Occupancy, SERT ([10]; 1 mg/kg PO): 11%
- % Transporter Occupancy, SERT ([10]; 3 mg/kg PO): −1%
- % Transporter Occupancy, SERT ([10]; 10 mg/kg PO): 6%
- % Transporter Occupancy, SERT ([10]; 30 mg/kg PO): 5%
